Blank lines part the entries; values can stand above or below the molecule they belong to.
How the values were obtained:
[1] = Method: A salt screen of this compound was conducted with various pharmaceutically acceptable counterions to analyze aqueous solubility of the formed salts. Formed solids suspected of forming salts were analyzed by X-ray powder diffraction (XRPD).
CCRF-CEM cells = experiment: Growth inhibition of CCRF-CEM cells, continuous (120 hr) drug exposure; format: cell-based; settings: Homo sapiens, continuous 120 hr exposure
Method: The human T-lymphoblastic leukemia cell line CCRF-CEM (described in Foley G F, et al., Cancer 1965; 18:522-9) was cultured as described in McCloskey D E, et al., J Biol Chem 1991; 266:6181-7 (both of which are incorporated herein by reference in their entirety) and verified to be negative for Mycoplasma contamination (Mycoplasma Plus PCR primers, Stratagene, La Jolla, Calif.).

[2] = Plasma concentration after oral L- or D-CH-1504 in non-fasted female Lewis rats; format: in vivo
Method: L- or D-CH-1504 was administered once orally to non-fasted female Lewis rats at a dose of 10 mg/kg (vehicle: 0.11% carboxymethylcellulose/0.45% TWEEN 80, formulation: suspension). About 750 μL of blood was collected from the jugular vein at 1 and 3 hours after administration. And then, whole of blood was collected from the femoral vein under diethyl ether anesthesia at 6 hours after administration. The collected blood was immediately centrifuged to obtain a plasma sample. L- and D-CH-1504 were extracted from the plasma by solid-phase extraction and were then determined with a LC/MS/MS.

[3] = Hygroscopicity study (storage at controlled relative humidity); format: physicochemical; settings: 75% relative humidity for five days
Excerpt: Hygroscopicity and approximate solubility in aqueous and buffered solutions of ammonium, besylate, calcium, esylate, sulfate, HCl, mesylate, napsylate, potassium, disodium, and tosylate salts were compared. In the hygroscopicity study, the salts were subjected to 75% relative humidity for five days.
An amorphous form was also generated. […] As described above, disodium salt Form A was a crystalline solid obtained using a water/IPA system or a water/acetone system. […] Heating was continued to achieve a temperature of 90° C. Crystallinity was not regained upon cooling to ambient.

Structure (SMILES): C=C(C[C@@H](NC(=O)c1ccc(CCc2ccc3nc(N)nc(N)c3c2)cc1)C(=O)O)C(=O)O [D-CH-1504]
EC50 (CCRF-CEM cells): 29 nM | Plasma conc. of D-CH-1504 ([2]; 1 h after 10 mg/kg oral, non-fasted female Lewis rats, individual animals): 11.0 ng/mL | concentration at 3 h ([2]; female, Lewis, rat, plasma, oral, 10 mg/kg, 3 h after 10 mg/kg oral, non-fasted female Lewis rats, individual animals, read-out: Plasma conc. of D-CH-1504): 14.3 ng/mL | concentration at 6 h ([2]; female, Lewis, rat, plasma, oral, 10 mg/kg, 6 h after 10 mg/kg oral, non-fasted female Lewis rats, individual animals, read-out: Plasma conc. of D-CH-1504): 8.34 ng/mL

Structure (SMILES): CN(Cc1cnc2nc(N)nc(N)c2n1)c1ccc(C(=O)NC(CCC(=O)O)C(=O)O)cc1 (stereo not shown) [MTX, methotrexate, reference compound]
EC50 (CCRF-CEM cells): 15 nM

Structure (SMILES): C=C(CC(NC(=O)c1ccc(CCc2ccc3nc(N)nc(N)c3c2)cc1)C(=O)O)C(=O)O.O=S(=O)(O)c1ccc2ccccc2c1 (stereo not shown) [napsylate salt]
hygroscopicity study outcome [3]: remained unchanged

More lines, now with the values ahead:

solubility of free acid form [1]: poor solubility | EC50 (CCRF-CEM cells): 8.6 nM | isomerization in vivo ([2]; by 6 hours after administration of each enantiomer, all samples): could not be confirmed
Structure (SMILES): C=C(CC(NC(=O)c1ccc(CCc2ccc3nc(N)nc(N)c3c2)cc1)C(=O)O)C(=O)O (racemic) [CH-1504, 2-{4-[2-(2,4-diamino-quinazolin-6-yl)-ethyl]-benzoylamino}-4-methylene-pentanedioic acid]

EC50 (CCRF-CEM cells): 6.1 nM
Structure (SMILES): C=C(C[C@H](NC(=O)c1ccc(CCc2ccc3nc(N)nc(N)c3c2)cc1)C(=O)O)C(=O)O [L-CH-1504, (S)-2-{4-[2-(2,4-diamino-quinazolin-6-yl)-ethyl]-benzoylamino}-4-methylene-pentanedioic acid]
